Assay results reported in PMC10230504, “Versatile Chemo-Biocatalytic Cascade Driven by a Thermophilic and Irreversible C–C Bond-Forming α-Oxoamine Synthase” (ACS Sustainable Chemistry & Engineering, 2023).

Target: T1, ThAOS (Thermus thermophilus, UniProt Q5SHZ8)
T1 construct: gene TTHA1582; recombinant, codon-optimized clone (GenScript), expressed in E. coli BL21 (DE3), purified
T1 sequence (Q5SHZ8 2-395): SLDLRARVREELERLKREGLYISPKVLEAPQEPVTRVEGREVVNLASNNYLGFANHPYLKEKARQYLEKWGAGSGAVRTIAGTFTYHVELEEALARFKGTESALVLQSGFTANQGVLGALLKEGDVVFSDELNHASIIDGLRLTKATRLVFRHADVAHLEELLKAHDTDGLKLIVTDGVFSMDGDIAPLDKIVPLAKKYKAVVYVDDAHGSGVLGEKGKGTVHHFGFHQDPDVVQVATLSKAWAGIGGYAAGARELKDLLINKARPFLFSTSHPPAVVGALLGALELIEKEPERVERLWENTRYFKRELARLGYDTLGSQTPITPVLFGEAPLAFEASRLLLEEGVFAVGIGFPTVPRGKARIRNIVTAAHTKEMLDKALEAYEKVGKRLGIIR
Test: DTNB assay of CoASH release; product confirmed by mass spectrometry
Format: biochemical
Settings: co-substrate acyl-CoA; 50 °C

NCC(=O)O [Gly]
DTNB assay of CoASH release; product confirmed by mass spectrometry: ThAOS was active with AAs (S)-2-aminobutyric acid (L-Aba), L-Ala, Gly and L-Ser
